The test system of assay [1] is Aurora-A-pT288 in U251 cells. Nature of the assay: Immunofluorescence, Aurora-A-pT288 spindle pole signal intensity, U251. The settings on record: U251, siRNA 48 h or Aurora-A inhibitor 30 min (250 nM). The format is cell-based, Homo sapiens. As for the experimental part: (§1) Drugs were resuspended in DMSO to the stock concentrations indicated in square brackets.
(§2) For immunofluorescence, 1 × 10^5 cells were seeded in six-well plates and simultaneously transfected with 60 pmol siRNA duplex and 3 µl transfection reagent diluted in 200 µl Opti-MEM serum-free medium. Growth medium was added to a final volume of 2 ml. For western blotting, 1 × 10^6 cells were seeded in 10 cm dishes and transfected with 300 pmol siRNA duplex and 15 µl transfection reagent diluted in 1000 µl Opti-MEM. Growth medium was added to a final volume of 10 ml. Cells were incubated with siRNA for 48 h prior to fixation or harvesting. As a negative control (siControl) Silencer select negative control No.1 siRNA was transfected as above. For TACC3 depletion, where two siRNA duplexes were used, 40 pmol of each was transfected per well.
For siRNA depletion, 1 × 10^5 cells were seeded in six-well plates and transfected as described above for 48 h prior to fixation. For all other experiments, 2.5 × 10^5 cells were seeded in six-well plates and grown for 24 h before fixation. […] Cells in Fig. EV4A were fixed using 4% (wt/v) paraformaldehyde (PFA) in PBS for 12 min, followed by 10 min quenching in 50 mM NH4Cl in PBS and 5 min of permeabilization with 0.2% (v/v) Triton X-100 in PBS, all at room temperature. For centriole staining in Fig. EV4E, cells were fixed in pre-chilled methanol for 10 min at −20 °C, incubated in PBS for 10 min and then 5 min in 0.5% Triton-X-100, 0.5% Tween, 0.05% SDS in PBS (v/v). […]
(§3) Here “area” refers to the area of DAPI-stained DNA, determined by thresholding (default mode) the region of interest. […] The diameter calculated, therefore, refers to that of a circle with equivalent area to the DAPI signal measured previously. The area of the nuclear DAPI signal (Appendix Fig. S6I) was determined by thresholding (as above). […] All fluorescence intensity and area measurements were obtained from maximum intensity z-projections. […]

The test system of assay [2] is Aurora-A in U251 cells. Nature of the assay: Immunofluorescence, Aurora-A spindle pole signal intensity, U251. Conditions: U251, siRNA 48 h or Aurora-A inhibitor 30 min (250 nM). The format is cell-based, Homo sapiens. As for the experimental part: as §1, §2
For siRNA depletion, 1 × 10^5 cells were seeded in six-well plates and transfected as described above for 48 h prior to fixation. For all other experiments, 2.5 × 10^5 cells were seeded in six-well plates and grown for 24 h before fixation. […] Cells in Fig. EV4A were fixed using 4% (wt/v) paraformaldehyde (PFA) in PBS for 12 min, followed by 10 min quenching in 50 mM NH4Cl in PBS and 5 min of permeabilization with 0.2% (v/v) Triton X-100 in PBS, all at room temperature. For centriole staining in Fig. EV4E, cells were fixed in pre-chilled methanol for 10 min at −20 °C, incubated in PBS for 10 min and then 5 min in 0.5% Triton-X-100, 0.5% Tween, 0.05% SDS in PBS (v/v). To observe centromere and kinetochore staining in Fig. 7C and Appendix Fig. S8A, cells were fixed with PTEMF buffer (20 mM PIPES pH 6.8, 0.2% (v/v) Triton X-100, 10 mM EGTA, 1 mM MgCl2, 4% PFA (wt/v) in PBS) for 12 min at room temperature. For all other experiments, cells were fixed in pre-chilled methanol for 5 min at −20 °C. Following fixation, coverslips were blocked in 2% BSA (wt/v), 0.1% Tween (v/v) in PBS, this and all antibody incubation steps were carried out for 1 h at room temperature, unless otherwise stated. Primary and secondary antibody (Life technologies) dilutions were made in 0.1% Tween, PBS, with secondary staining being conducted in the dark. Coverslips were gently washed with three x 2 ml 0.2% Tween, PBS between antibody incubation steps. […]
as §3

For the compound 5′-CAAACAACUUGGAAAUCGAtt-3′ [siCEP192], the “centrosomal/spindle pole Aurora-A-pT288 signal” value in assay [1] is “diminished the intensity of pT288 signal”. Further, the “spindle (pole)-associated Aurora-A level” value in assay [2] is listed as “significant drop”.
As to 5′-CGGUAGUGAUAAAAGCUCAtt-3′ [siTPX2], the “centrosomal/spindle pole Aurora-A-pT288 signal” value in assay [1] is recorded as “diminished the intensity of pT288 signal”. Also, the “spindle (pole)-associated Aurora-A level” value in assay [2] (listed as TPX2 depletion) was “complete loss of Aurora-A from mitotic spindles”; in assay [2] (listed as depletion of TPX2), “diminished levels of spindle pole-associated Aurora-A”.
`COc1cc(Nc2ncc3c(n2)-c2ccc(Cl)cc2C(c2c(F)cccc2OC)=NC3)ccc1C(=O)O` [Alisertib]: the “centrosomal/spindle pole Aurora-A-pT288 signal” value in assay [1] was “obliterated”. In addition, in assay [2] (listed as Aurora-A inhibition), the “spindle (pole)-associated Aurora-A level” value is listed as “significant drop”.

These data come from publication PMC11574021, “CEP192 localises mitotic Aurora-A activity by priming its interaction with TPX2” (The EMBO Journal, 2024).
